Source: patent publication US20230416205A1, “COMPOUNDS, COMPOSITIONS, AND METHODS” (Denali Therapeutics Inc, priority 2020, published 2023)
Read-outs that look alike come from different tables or passages of the source.

Tested on: NLRP3
Assay: IL-1β secretion assay in PMA-differentiated, LPS/nigericin-stimulated THP-1 cells (384-well, ELISA read-out)
Format: cell-based, human
Settings: Homo sapiens
Procedure, shortened: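 THP-1 cells differentiated with PMA (5 ng/mL, 40 h), primed in serum-free medium with 25 ng/mL LPS for 2 h, treated with compounds 1 h (0.5% DMSO), then stimulated with nigericin for 2 h at 37 °C. Supernatant IL-1β measured by ELISA; responses normalized to LPS+5 μM nigericin and LPS-only controls.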

[1] = THP-1, IL-1β secretion, PMA-differentiated THP-1 cells, LPS then nigericin stimulation, ELISA read at 450 nm, read-out: Activity
[2] = THP-1, Table 4, IL-1β secretion, LPS/nigericin-stimulated THP-1 cells, read-out: IC50

In the case of `O=C(CN1C[C@]2(C[C@H]2F)c2cc(Br)ccc2C1=O)Nc1ncc(F)cn1` [Example 79, 2-[(2′R,4S)-6-bromo-2′-fluoro-1-oxospiro[3H-isoquinoline-4,1′-cyclopropane]-2-yl]-N-(5-fluoropyrimidin-2-yl)acetamide], the IC50 [1] is reported as less than 10 µM and the IC50 [2] is reported as 0.015 µM.
For `O=C(CN1CC2(CC23CC3)c2cc(Br)ccc2C1=O)Nc1ncc(F)cn1` (centres unmarked) [Example 81, N-(5-fluoropyrimidin-2-yl)-2-(6-bromo-1-oxospiro[3H-isoquinoline-4,1′-(spiro[2.2]pentan-1-yl)]-2-yl)acetamide], the IC50 [1] was less than 10 µM and the IC50 [2] was 2.56 µM.
`O=C(CN1CC2(CC2)c2cc(OCF)ccc2C1=O)Nc1ncccn1` [Example 82, 2-[6-(fluoromethoxy)-1-oxospiro[3H-isoquinoline-4,1′-cyclopropane]-2-yl]-N-pyrimidin-2-ylacetamide] gave an IC50 [1] of less than 10 µM and an IC50 [2] of 2.22 µM.
For `O=C(CN1CC2(CC2)c2c(ccc(Br)c2Cl)C1=O)Nc1ncc(F)cn1` [Example 83, 2-(6-bromo-5-chloro-1-oxospiro[3H-isoquinoline-4,1′-cyclopropane]-2-yl)-N-(5-fluoropyrimidin-2-yl)acetamide], the IC50 [1] was less than 10 µM and the IC50 [2] was 0.521 µM.
`O=C(CN1CC2(CC2)c2cc(C(F)(F)F)c(F)cc2C1=O)Nc1ncc(F)cn1` [Example 84, 2-[7-fluoro-1-oxo-6-(trifluoromethyl)spiro[3H-isoquinoline-4,1′-cyclopropane]-2-yl]-N-(5-fluoropyrimidin-2-yl)acetamide] showed an IC50 [1] of less than 10 µM and an IC50 [2] of 5.98 µM.
`N#Cc1cnc(NC(=O)CN2CC3(CC3)c3cc(C(F)(F)F)ccc3C2=O)c(F)c1` [Example 85, N-(5-cyano-3-fluoropyridin-2-yl)-2-[1-oxo-6-(trifluoromethyl)spiro[3H-isoquinoline-4,1′-cyclopropane]-2-yl]acetamide] was tested, and the IC50 [1] was less than 10 µM and the IC50 [2] was 0.992 µM.
`O=C(CN1C[C@@]2(C[C@@H]2C(F)(F)F)c2cc(Br)ccc2C1=O)Nc1ncc(F)cn1` [Example 86, 2-[(2′s,4r)-6-bromo-1-oxo-2′-(trifluoromethyl)spiro[3H-isoquinoline-4,1′-cyclopropane]-2-yl]-N-(5-fluoropyrimidin-2-yl)acetamide] showed an IC50 [1] of less than 10 µM and an IC50 [2] of 2.81 µM.
In the case of `O=C(CN1CC2(CC2)c2cc(C3CCC3)ccc2C1=O)Nc1ncc(F)cn1` [Example 87, 2-(6-cyclobutyl-1-oxospiro[3H-isoquinoline-4,1′-cyclopropane]-2-yl)-N-(5-fluoropyrimidin-2-yl)acetamide], the IC50 [1] is reported as less than 10 µM and the IC50 [2] is reported as 5.39 µM.
`O=C(CN1CC2(CC2)c2cc(C3CC3(F)F)ccc2C1=O)Nc1ncc(F)cn1` (centres unmarked) [Example 88, 2-[6-(2,2-difluorocyclopropyl)-1-oxo-spiro[3H-isoquinoline-4,1′-cyclopropane]-2-yl]-N-(5-fluoropyrimidin-2-yl)acetamide] gave an IC50 [1] of less than 10 µM and an IC50 [2] of 3.61 µM.
Work on `N#Cc1c(C(F)(F)F)ccc2c1C1(CC1)CN(CC(=O)Nc1ncc(F)cn1)C2=O` [Example 89, 2-[5-cyano-1-oxo-6-(trifluoromethyl)spiro[3H-isoquinoline-4,1′-cyclopropane]-2-yl]-N-(5-fluoropyrimidin-2-yl)acetamide] yielded an IC50 [1] of less than 10 µM and an IC50 [2] of 6.84 µM.
For `O=C(CN1CC2(CC2)c2cc(I)ccc2C1=O)Nc1ncc(F)cn1` [Example 90, N-(5-fluoropyrimidin-2-yl)-2-(6-iodo-1-oxospiro[3H-isoquinoline-4,1′-cyclopropane]-2-yl)acetamide], the IC50 [1] was less than 10 µM and the IC50 [2] was 0.034 µM.
`COc1ccc2c(c1)C1(CC1)CN(CC(=O)Nc1ncccn1)C2=O` [Example 91, 2-(6-methoxy-1-oxospiro[3H-isoquinoline-4,1′-cyclopropane]-2-yl)-N-pyrimidin-2-ylacetamide] was tested, and the IC50 [1] was less than 10 µM and the IC50 [2] was 3.21 µM.
With `O=C(CN1CC2(COC2)c2cc(Br)ccc2C1=O)Nc1ncccn1` [Example 92, 2-(6-bromo-1-oxospiro[3H-isoquinoline-4,3′-oxetane]-2-yl)-N-pyrimidin-2-ylacetamide] the IC50 [1] was less than 10 µM and the IC50 [2] was 4.46 µM.
